Laboratory results from the supplement of paper PMC9013687.
± gives the standard deviation of the averaged measurements.

How the values were obtained:
[1] = test system: Danio rerio embryo; experiment: EC20 Yolk sac size_Increase; higher = less potent; conditions: exposure time: 4 dpf
Method: (§1)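 Zebrafish embryos (UFZ-OBI strain) were exposed from 2 hpf for 48 h (2 dpf) or 96 h (4 dpf) at 28 °C; spontaneous tail coiling was scored at 25 hpf. Morphological features from automated image analysis (FishInspector), heart rate and locomotor response were fitted with drc models. Quantal endpoints were dichotomised at 2.5 SD from controls and fitted with a log-logistic model; heart rate, pigmentation and STC were normalised to the replicate control mean. Betamethasone was tested as betamethasone dipropionate, diflorasone as diflorasone diacetate.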

[2] = test system: Danio rerio embryo; experiment: EC20 Body length_Decrease; higher = less potent
Method: as §1

[3] = test system: Danio rerio embryo; experiment: EC20 Any effect; higher = less potent
Method: as §1

[4] = test system: Danio rerio embryo; experiment: EC10 Pericard size_Increase; higher = less potent
Method: as §1

[5] = test system: Danio rerio embryo; experiment: EC20 LMR dark; higher = less potent; conditions: exposure time: 4 dpf
Method: as §1

[6] = test system: Danio rerio embryo; experiment: EC50 Otolith-eye distance_Decrease; conditions: exposure time: 4 dpf
Method: as §1

[7] = test system: Danio rerio embryo; experiment: EC50 Curvature_Increase
Method: as §1

[8] = test system: Danio rerio embryo; experiment: EC10 LMR dark; higher = less potent; conditions: exposure time: 4 dpf
Method: as §1

[9] = test system: Danio rerio embryo; experiment: EC20 Pericard size_Increase; higher = less potent
Method: as §1

[10] = test system: Danio rerio embryo; experiment: EC10 Otolith-eye distance_Decrease; higher = less potent; conditions: exposure time: 4 dpf
Method: as §1

[11] = test system: Danio rerio embryo; experiment: EC10 Curvature_Increase; higher = less potent
Method: as §1

[12] = test system: Danio rerio embryo
Method: as §1

[13] = test system: Danio rerio embryo; experiment: EC20 Eye-jaw distance_Decrease; higher = less potent; conditions: exposure time: 4 dpf
Method: as §1

[14] = test system: Danio rerio embryo; experiment: EC20 Bladder size_Decrease; higher = less potent; conditions: exposure time: 4 dpf
Method: as §1

[15] = test system: Danio rerio embryo; experiment: EC20 Otolith-eye distance_Decrease; higher = less potent; conditions: exposure time: 4 dpf
Method: as §1

[16] = test system: Danio rerio embryo; experiment: EC10 Bladder size_Decrease; higher = less potent; conditions: exposure time: 4 dpf
Method: as §1

[17] = test system: Danio rerio embryo; experiment: EC20 Curvature_Increase; higher = less potent
Method: as §1

[18] = test system: Danio rerio embryo; experiment: EC50 Pericard size_Increase
Method: as §1

[19] = test system: Danio rerio embryo; experiment: EC50 Body length_Decrease
Method: as §1

[20] = test system: Danio rerio embryo; experiment: EC50 Yolk sac size_Increase; conditions: exposure time: 4 dpf
Method: as §1

[21] = test system: Danio rerio embryo; experiment: EC10 Body length_Decrease; higher = less potent
Method: as §1

[22] = test system: Danio rerio embryo; conditions: exposure time: 4 dpf
Method: as §1

[23] = test system: Danio rerio embryo; experiment: EC10 Any effect; higher = less potent
Method: as §1

[24] = test system: Danio rerio embryo; experiment: spontaneous tail coiling frequency (coils/min/embryo); higher = more spontaneous movement; conditions: 25 hpf
Method: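 Spontaneous tail coilings of zebrafish embryos exposed from 2 hpf were recorded at 24-25 hpf in 1-min videos and detected by a KNIME workflow from grey-value variance. Betamethasone was tested as the dipropionate, diflorasone as the diacetate.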

[25] = test system: Danio rerio embryo; experiment: EC10 Yolk sac size_Increase; higher = less potent; conditions: exposure time: 4 dpf
Method: as §1

[26] = test system: Danio rerio embryo; experiment: EC50 Eye-jaw distance_Decrease; conditions: exposure time: 4 dpf
Method: as §1

[27] = test system: Danio rerio embryo; experiment: EC50 Bladder size_Decrease; conditions: exposure time: 4 dpf
Method: as §1

[28] = test system: Danio rerio embryo; experiment: EC10 Eye-jaw distance_Decrease; higher = less potent; conditions: exposure time: 4 dpf
Method: as §1

O=C(O)CCc1nc(-c2ccccc2)c(-c2ccccc2)o1 [Oxaprozin]
Conditions	EC10 Bladder size Decrease [µM]	EC10 Eye-jaw distance Decrease [µM]	EC10 LMR dark [µM]	EC10 Otolith-eye distance Decrease [µM]	EC10 Yolk sac size Increase [µM]	EC20 Bladder size Decrease [µM]	EC20 Eye-jaw distance Decrease [µM]	EC20 LMR dark [µM]	EC20 Otolith-eye distance Decrease [µM]	EC20 Yolk sac size Increase [µM]	EC50 Bladder size Decrease [µM]	EC50 Eye-jaw distance Decrease [µM]	EC50 LMR dark [µM]	EC50 Otolith-eye distance Decrease [µM]	EC50 Yolk sac size Increase [µM]
[1]	–	–	–	–	–	–	–	–	–	16.3	–	–	–	–	–
[5]	–	–	–	–	–	–	–	13.3	–	–	–	–	–	–	–
[6]	–	–	–	–	–	–	–	–	–	–	–	–	–	24.8	–
[8]	–	–	11.8	–	–	–	–	–	–	–	–	–	–	–	–
[10]	–	–	–	16.5	–	–	–	–	–	–	–	–	–	–	–
[13]	–	–	–	–	–	–	15.4	–	–	–	–	–	–	–	–
[14]	–	–	–	–	–	11.8	–	–	–	–	–	–	–	–	–
[15]	–	–	–	–	–	–	–	–	19.2	–	–	–	–	–	–
[16]	11.5	–	–	–	–	–	–	–	–	–	–	–	–	–	–
[20]	–	–	–	–	–	–	–	–	–	–	–	–	–	–	22.6
[22]	–	–	–	–	–	–	–	–	–	–	–	–	16.2	–	–
[25]	–	–	–	–	13.4	–	–	–	–	–	–	–	–	–	–
[26]	–	–	–	–	–	–	–	–	–	–	–	21.5	–	–	–
[27]	–	–	–	–	–	–	–	–	–	–	12.2	–	–	–	–
[28]	–	12.7	–	–	–	–	–	–	–	–	–	–	–	–	–

Conditions	EC10 Any effect [µM]	EC10 Body length Decrease [µM]	EC10 Curvature Increase [µM]	EC10 Pericard size Increase [µM]	EC20 Any effect [µM]	EC20 Body length Decrease [µM]	EC20 Curvature Increase [µM]	EC20 Pericard size Increase [µM]	EC50 Any effect [µM]	EC50 Body length Decrease [µM]	EC50 Curvature Increase [µM]	EC50 Pericard size Increase [µM]	EC50 Pigmentation increase [µM]	spontaneous tail coiling frequency
[2], exposure time: 2 dpf	–	–	–	–	–	29.3	–	–	–	–	–	–	–	–
[2], exposure time: 4 dpf	–	–	–	–	–	21.8	–	–	–	–	–	–	–	–
[3], exposure time: 2 dpf	–	–	–	–	19.3	–	–	–	–	–	–	–	–	–
[3], exposure time: 4 dpf	–	–	–	–	15.3	–	–	–	–	–	–	–	–	–
[4], exposure time: 2 dpf	–	–	–	31.1	–	–	–	–	–	–	–	–	–	–
[4], exposure time: 4 dpf	–	–	–	11.8	–	–	–	–	–	–	–	–	–	–
[7], exposure time: 2 dpf	–	–	–	–	–	–	–	–	–	–	61.4	–	–	–
[7], exposure time: 4 dpf	–	–	–	–	–	–	–	–	–	–	30.8	–	–	–
[9], exposure time: 2 dpf	–	–	–	–	–	–	–	38.6	–	–	–	–	–	–
[9], exposure time: 4 dpf	–	–	–	–	–	–	–	14.1	–	–	–	–	–	–
[11], exposure time: 2 dpf	–	–	28.7	–	–	–	–	–	–	–	–	–	–	–
[11], exposure time: 4 dpf	–	–	21.8	–	–	–	–	–	–	–	–	–	–	–
[12], exposure time: 2 dpf	–	–	–	–	–	–	–	–	30.2	–	–	–	–	–
[12], exposure time: 4 dpf	–	–	–	–	–	–	–	–	20.2	–	–	–	35.6	–
[17], exposure time: 2 dpf	–	–	–	–	–	–	38	–	–	–	–	–	–	–
[17], exposure time: 4 dpf	–	–	–	–	–	–	24.8	–	–	–	–	–	–	–
[18], exposure time: 2 dpf	–	–	–	–	–	–	–	–	–	–	–	55.9	–	–
[18], exposure time: 4 dpf	–	–	–	–	–	–	–	–	–	–	–	19.1	–	–
[19], exposure time: 2 dpf	–	–	–	–	–	–	–	–	–	38	–	–	–	–
[19], exposure time: 4 dpf	–	–	–	–	–	–	–	–	–	27.1	–	–	–	–
[21], exposure time: 2 dpf	–	25.1	–	–	–	–	–	–	–	–	–	–	–	–
[21], exposure time: 4 dpf	–	19.3	–	–	–	–	–	–	–	–	–	–	–	–
[23], exposure time: 2 dpf	14.9	–	–	–	–	–	–	–	–	–	–	–	–	–
[23], exposure time: 4 dpf	13	–	–	–	–	–	–	–	–	–	–	–	–	–
[24], 15.2 µM	–	–	–	–	–	–	–	–	–	–	–	–	–	4.43
[24], 17 µM	–	–	–	–	–	–	–	–	–	–	–	–	–	3.98
[24], 22.7 µM	–	–	–	–	–	–	–	–	–	–	–	–	–	4.29
[24], 34.1 µM	–	–	–	–	–	–	–	–	–	–	–	–	–	4.85 ± 1.1
[24], 51.1 µM	–	–	–	–	–	–	–	–	–	–	–	–	–	5.84
[24], 68.2 µM	–	–	–	–	–	–	–	–	–	–	–	–	–	4.34
[24], 85.2 µM	–	–	–	–	–	–	–	–	–	–	–	–	–	8.82
[24], 102.3 µM	–	–	–	–	–	–	–	–	–	–	–	–	–	6.78
